Experiments:
CB1 cannabinoid receptor = CB1 cannabinoid receptor (Homo sapiens, UniProt P21554); conditions: background statement; cited from earlier work
CB1 = CB1 (Homo sapiens, UniProt P21554); conditions: background statement; cited from earlier work
[1] = system: mouse primary spinal cord cultures; experiment: TBH oxidative damage in mixed spinal cord cultures (LDH release)
[2] = system: hSOD1^G93A mice (ALS mice); experiment: Behaviour and body weight of treated hSOD1^G93A mice; format: in vivo
Experimental: (§1) hSOD1^G93A mice (ALS mice) were administered Δ^9-THC (5 and 10 mg/kg body weight) or vehicle beginning at 60 days of age, i.e., prior to onset of disease signs. The earliest clinical signs of disease observed were tremors and shaking of their limbs when mice were suspended briefly in the air by their tails. These signs were never seen in non-transgenic littermates, but were always seen in hSOD^G93A mice after 75 days. In a subsequent set of experiments, mice were administered 20 mg/kg Δ^9-THC beginning on day 75 when tremors were first observed, i.e., after onset of disease signs. Mice were evaluated on a rotarod to follow disease progression.

[3] = system: hSOD1^G93A mice (ALS mice); experiment: Survival of hSOD1^G93A mice; format: in vivo
Experimental: as §1
In these experiments, the treatment effect was to slow the progression of disease (FIG. 1b). Furthermore, treatment with Δ^9-THC improved survival. […] Treatment with 10 mg/ kg Δ^9-THC extended mean survival from 125.9±1.6 days (vehicle, n=15) to 131.8±2.4 days (Δ^9-THC, n=8, p<0.05)(FIG. 2a, c). This represents a […] increase in survival in the 10 mg/ kg Δ^9-THC-treated group. At a (delayed) dose of 20 mg/kg the increase in mean survival was 6.4 days (5.1%).
FIG. 2. Δ^9-THC extends survival in hSOD1^G93A mice. Cumulative survival in hSOD1^G93A mice treated with 10 mg/kg Δ^9-THC (a) or 20 mg/kg Δ^9-THC (b). Mortality of hSOD1^G93A mice treated with Δ^9-THC or vehicle (c).

[4] = system: primary neuronal cultures prepared from mouse spinal cord; conditions: Abood et al, Neurosci Lett 309:197-201, 2001; cited from earlier work
rodents = experiment: Motor toxicity in rodents; format: in vivo; conditions: intraperitoneally
Experimental: For THC the effective dose range should be 10 mg-70 mg/kg/day intraperitoneally in rodents. Motor toxicity is seen at 84 mg/kg/day. An estimate of effective dose range in rodents can be obtained from comparison to other measures of bioactivity of these compounds, e.g. in analgesia and/or anticonvulsant activity. […] However, other routes of administration may include intravenous, inhaled or sub-lingual, formulations such as in a patch or a spray, whereby the doses would most likely be different (e.g. 100 mg/day in a patch) in both rodents and humans.

[5] = system: primary neuronal cultures prepared from mouse spinal cord; experiment: Kainate excitotoxicity in spinal cord neuronal cultures; format: cell-based; conditions: previously observed
ALS patients = experiment: Open label crossover escalating dose study of Marinol in ALS patients; format: in vivo, humans
[6] = system: hSOD1^G93A mice (ALS mice); experiment: Rotarod endurance (disease progression) in hSOD1^G93A mice; format: in vivo; conditions: for Increase of A50% (age at which endurance declined to 50%) per 10 mg/kg of THC; A.(dose) estimate: nonlinear mixed effects model, rotarod; for Days from 9 to 1 min / Days to 50% endurance: prediction based on model
Experimental: as §1
In order to assess the effect of Δ^9-THC on disease progression, a logistic response curve was fit to the endurance time for each mouse using a nonlinear mixed effects model. For these experiments, each mouse was assessed on the rotarod at 5 and 10 rpm. […] A50% increased 3.3 days (±1.1 day) per 10 mg/kg of THC (2-sided p=0.003). In other words, disease progression as assessed by rotarod performance was delayed 3.3 days in the 10 mg/kg and 6.6 days in the 20 mg/kg group as compared to the vehicle treated animals. This represents a 3% increase in motor performance endurance in the 10 mg/kg group and a 6% increase in the 20 mg/kg group. Note that the increase in the 20 mg/kg group was not affected by the delay in initiation of treatment.
Animals were assessed later in the disease by testing them at the slower rotarod speed (5 rpm). In the data analysis, A50% increased 6.5 days (±0.4 day) when changing from 10 rpm to 5 rpm. However, the rate of decline increased by a factor of 2 in going from 10 rpm to 5 rpm. This rate of decline can also be understood by expressing it as number of days to decline from 9 minutes to 1-minute endurance, based on the fitting equation. At 10 rpm, it took 17.1 (±1.76) days to decline from 9 to 1 minute vs. 8.55 (±0.88) days at 5 rpm. […] FIG. 1a. Δ^9-THC delays progression of disease in hSOD1^G93A mice. Motor function was tested weekly on the rotarod at 10 and 5 rpm. The decline in endurance over time for each animal at 10 rpm is shown in (a). Mouse numbers 1-13 correspond to vehicle treated animals, numbers 1001-1008 correspond to the 10 mg/kg Δ^9-THC treatment group, and 2001-2009 correspond to the 20 mg/kg Δ^9-THC treatment group.
FIG. 1b Logistic response curves showing declines based on fitting a logistic model to observed data. Solid curves are tests at 10 rpm, dashed curves for 5 rpm. The three curves for each rpm are for doses of 0 (vehicle, blue), 10 (mg/kg Δ^9-THC, green) and 20 (mg/kg Δ^9-THC, red). Parameters for curves are based on a nonlinear mixed effects model given by Time=10/(1+exp((Age-A)/B)).

[7] = rpm 10, dose 10 as printed (r11)

CB1 cannabinoid receptor, sequence (P21554 whole entry): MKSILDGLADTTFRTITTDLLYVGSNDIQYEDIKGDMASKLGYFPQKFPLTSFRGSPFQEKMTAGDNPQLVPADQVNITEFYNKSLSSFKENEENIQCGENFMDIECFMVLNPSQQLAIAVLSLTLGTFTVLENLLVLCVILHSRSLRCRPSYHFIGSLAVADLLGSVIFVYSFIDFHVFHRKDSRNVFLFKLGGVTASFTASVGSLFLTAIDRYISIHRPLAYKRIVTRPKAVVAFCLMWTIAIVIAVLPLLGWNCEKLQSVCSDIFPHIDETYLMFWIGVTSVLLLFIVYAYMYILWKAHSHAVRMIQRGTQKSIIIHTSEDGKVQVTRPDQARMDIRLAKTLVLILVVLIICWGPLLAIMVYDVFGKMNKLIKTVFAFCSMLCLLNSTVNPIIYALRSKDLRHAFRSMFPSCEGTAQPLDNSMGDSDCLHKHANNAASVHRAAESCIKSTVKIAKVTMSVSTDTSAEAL
CB1, sequence (P21554 whole entry): as above

CCCCCc1cc(O)c2c(c1)OC(C)(C)C1CCC(CO)=CC21 (stereo not shown) [11-hydroxy-THC]
Agonist potency/activity relative to THC (CB1 cannabinoid receptor): more active than its parent

CCCCCCC(C)(C)c1cc(O)c2c(c1)OC(C)(C)[C@@H]1CC=C(CO)C[C@@H]21 [HU-210]
Activity at central (CB1) receptor (CB1 cannabinoid receptor): retains activity at central (CB1)

CCCCCCC(C)(C)c1cc(O)c2c(c1)OC(C)(C)[C@H]1CC=C(CO)C[C@H]21 [HU-211, dexanabinol]
Activity at central (CB1) receptor (CB1 cannabinoid receptor): inactive

CCCCCCCC/C=C\CCCCCCCC(N)=O [Oleamide]
Binding to CB1 (CB1): does not bind CB1

CCCc1cc(O)c2c(c1)OC(C)(C)[C@@H]1CCC(C)=C[C@@H]21 [Propyl-THC]
Agonist potency/activity relative to THC (CB1 cannabinoid receptor): less agonist activity than THC

Cc1c(C(=O)NN2CCCCC2)nn(-c2ccc(Cl)cc2Cl)c1-c1ccc(Cl)cc1 [SR141716A]
Block of the antioxidant effect of Δ^9-THC ([1]; 1 μM SR141716A plus 0.5 μM Δ^9-THC, TBH): not blocked

CCCCCc1cc(O)c2c(c1)OC(C)(C)[C@@H]1CCC(C)=C[C@@H]21 [Δ^9-THC, delta-9-tetrahydrocannabinol]
Weights, difference between treatment groups ([2]; 5, 10, 20 mg/kg vs vehicle): no significant difference in weights | Overt behavioral changes ([2]; any of the doses given (5, 10, 20 mg/kg)): No overt behavioral changes | Survival ([3]; 5 mg/kg): trend towards increased survival | Mean survival ([3]; 10 mg/kg, n=8, vehicle 125.9±1.6 days): 131.8 ± 2.4 days | Kainate toxicity [4]: effectively reduce kainate toxicity | Dose at which motor toxicity is seen (rodents): 84 mg/kg/day | Protection of spinal cord neurons against direct excitotoxin (kainate) exposure, compared with NBQX [5]: as effective as the anti-excitotoxic compound NBQX | Patients showing reduction in rate of decline of ALSFRS (ALS patients; 3 month trial period): 11 of the 19 | Serious adverse events (ALS patients; 25 patients treated, one death unrelated to drug effect): no other serious adverse events | Symptomatic benefits (ALS patients; ALS patients while taking Marinol): Symptomatic benefits were seen in insomnia, appetite, fasciculations and spasticity | Tolerability (ALS patients; ALS patients, oral, escalating dose 2.5-10 mg, 3 months): well tolerated | Tolerability (ALS patients; humans, 10 mg/day orally): well tolerated | Average rate of decline (ALSFRS) (ALS patients; when patients were taking drug): 27% | Cytotoxicity ([1]; 200 μM TBH for 5 hours in the presence of 0.5 μM Δ^9-THC, TBH alone 74 (±14) %, n=4): 28 (±8) % | Delay of disease progression as assessed by rotarod performance vs vehicle ([6]; 10 mg/kg): 3.3 days | Increase in motor performance endurance ([6]; 10 mg/kg): 3% | Increase in motor performance endurance ([6]; 20 mg/kg): 6% | Delay of disease progression as assessed by rotarod performance vs vehicle ([6]; 20 mg/kg, from day 75): 6.6 days | Increase of A50% (age at which endurance declined to 50%) per 10 mg/kg of THC; A.(dose) estimate [6]: 3.29 days | Increase of A50% (age at which endurance declined to 50%) per 10 mg/kg of THC; A.(dose) estimate ([6]; listed as THC): 3.3 days | Days from 9 to 1 min ([6]; rpm 5, dose 10): 8.55 days | Days to 50% endurance ([6]; rpm 5, dose 10): 109.8 days | Days from 9 to 1 min ([6]; rpm 5, dose 20): 8.55 days | Days to 50% endurance ([6]; rpm 5, dose 20): 113.1 days | Days from 9 to 1 min ([6]; rpm 10, dose 10 (r10)): 17.10 days | Days to 50% endurance ([6]; rpm 10, dose 10 (r10)): 103.3 days | Days from 9 to 1 min [6, 7]: 17.10 days | Days to 50% endurance [6, 7]: 106.6 days

— patent publication US20040018151A1, “Use of anandamide/cannabinoid receptor/acceptor agonists in als screening and treatment methods” (priority 2002, published 2004)
